What all share (assay): relative viability (nuclei count vs DMSO), 5 days (fraction); higher = more cells survive
Compound in experiment [1]: Nc1ccccc1NC(=O)c1ccc(CNC(=O)OCc2cccnc2)cc1 [Entinostat] + N=C(N)NC(=N)NCCc1ccccc1 [Phenformin] (partner 250 µM)
The method in brief: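 A single step with final 0.05% Triton X-100, 1% formaldehyde and 1 ug/ml Hoechst fixed the cells and stained nuclei 5 days after treatment. Lung cancer cell lines in 1536-well plates had been treated by pin tool the day after seeding with one drug alone or a fixed anchor-drug dose plus five library-drug doses (not always all listed) in √10 steps, and nuclei were counted on 4× images. Relative viability is the ratio of nuclei in treated wells to nuclei in vehicle wells, taken as the median of duplicate plates.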

Compound in experiment [2]: Nc1ccccc1NC(=O)c1ccc(CNC(=O)OCc2cccnc2)cc1 [Entinostat]
The method in brief: (§1)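 A plate was accepted only when its control CV was below 25% and the cells had doubled at least once. Viability is defined from nuclear counts as treated wells divided by vehicle wells, with the median taken across plates. That median covers lung cancer cell lines grown in 1536-well plates, dosed by pinning at five √10-spaced library-drug concentrations, and counted in MetaXpress from 4× Hoechst images after 5 days.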

Compound in experiment [3]: CN1CCC(CNc2ccc3ncc(-c4cccc(OC(F)(F)F)c4)n3n2)CC1 [SGI-1776]
The method in brief: as §1

Compound in experiment [4]: C1COCCN1C2=NC(=NC3=C2OC4=C3C=CC=N4)C5=CC(=CC=C5)NC(=O)C6=CN=C(C=C6)N
The method in brief: as §1

As to UMC-11, the relative viability in experiment [1] (first compound 0.02 µM) worked out at 0.307; in experiment [1] (first compound 0.06325 µM) it was 0.334; in experiment [1] (first compound 0.2 µM), 0.347; in experiment [1] (first compound 0.6325 µM) it was 0.21; in experiment [1] (first compound 2 µM), 0.188; in experiment [2] (0.02 µM), 1.14. In addition, the relative viability was found to be 1.11 in experiment [2] (0.06325 µM); 0.918 in experiment [2] (0.2 µM); 0.287 in experiment [2] (0.6325 µM); 0.203 in experiment [2] (2 µM); 1 in experiment [3] (0.08 µM); 1.04 in experiment [3] (0.8 µM). Further, the relative viability in experiment [3] (2.53 µM) was 0.923; in experiment [3] (8 µM), 0.779; in experiment [4] (0.02 µM) it was 0.983; in experiment [4] (0.06325 µM) it was 1.05; in experiment [4] (0.2 µM), 0.945; in experiment [4] (0.6325 µM) it was 1.13. Further, the relative viability in experiment [4] (2 µM) worked out at 0.818.
